According to patent publication US10363239B2, “Method for inhibiting growth of cancer cells” (Pain Therapeutics, Inc., priority 2013, dated 2019):

Tests used:
[1] = tested on: primary neuroendocrine tumor cells; experiment: Cell proliferation by Ki67 and PCNA (Western blotting); assay type: cell-based, human; settings: 1 nM; 4 days
[2] = tested on: small-cell lung carcinoma cells; experiment: Cell proliferation by cell-cycling markers Ki67 and PCNA (Western blots); assay type: cell-based, human; settings: 0.1-5 nM; 4 days
[3] = tested on: metastatic (liver) neuroendocrine tumor cells; experiment: Cell proliferation by Ki67 and PCNA (Western blotting); assay type: cell-based, human; settings: 1 nM; 4 days
more than 65 receptors = experiment: Standard binding assay on more than 65 receptors; settings: 10 μM concentration
[4] = tested on: FLNA-bound K-ras and ras-GAP in BxPc3 cells; experiment: FLNA-bound K-ras and ras-GAP (immunoprecipitation, Western blotting); assay type: cell-based, human; settings: 0.1, 0.5, 1 and 5 nM
Experimental: (§1) Thus, melanoma, two different pancreatic cancerous cell lines (MiaPaCa2 and BxPc3) and a glioblastoma cell line (U87) were treated with zero (vehicle), 0.1, 0.5, 1 and 5 nM Compound C0105 as previously discussed, and FLNA-bound K-ras and ras-GAP were immunoprecipitated, separated by Western blotting and the blot densities determined as discussed previously.
(§2) To study the effect of Compound C0105 on pS^2152FLNA levels, FLNA linkages to key regulators including protein phosphatases as well as activated Akt (pS^473-, pT^308-Akt), mTOR ([…]) and ERK (pY/pT-ERK) levels, the cancer and normal cells were cultured to approximately 90% confluency and treated with vehicle or varying concentrations of Compound C0105. The cells were washed with warm phosphate-buffered saline (PBS), pH 7.2, dissociated, homogenized by sonication and solubilized using 0.5% NP-40 (nonoxynol 40), 0.2% sodium cholate and 0.5% digitonin for 1 hour at 4° C.
(§3) The cell lysates were diluted 5-fold with immunoprecipitation buffer and immunoprecipitated with anti-FLNA, -Akt, -mTOR and -ERK2 as described previously [Talbot et al., J Clin Inv 122(4):1-23 (2012); Wang et al., J Neurosci 32(29):9773-9784 (2012)]. The levels of FLNA linkages, activated phosphorylated Akt (pS^473 and pT^308), phosphorylated mTOR (pS^2448) and phosphorylated ERK2 (pY/pT) were determined in anti-FLNA, -Akt, -mTOR and -ERK2 immunoprecipitates by Western blotting with appropriate antibodies directed against PTEN, PP2A, K-RAS, ras-GAP (FLNA linkages), pS^473Akt, pT^308Akt, pS^2448mTOR and pY/pT ERK2 (activation of Akt, mTOR and ERK2).

[5] = tested on: FLNA-bound K-ras and ras-GAP in glioblastoma cell line (U87); experiment: as above; assay type: cell-based, human; settings: 0.1, 0.5, 1 and 5 nM
Experimental: as §1, §2, §3

[6] = tested on: FLNA-bound K-ras and ras-GAP in melanoma cells; experiment: as above; assay type: cell-based, human; settings: 0.1, 0.5, 1 and 5 nM
Experimental: as §1, §2, §3

[7] = tested on: FLNA-bound K-ras and ras-GAP in MiaPaCa2 cells; experiment: as above; assay type: cell-based, human; settings: 0.1, 0.5, 1 and 5 nM
Experimental: as §1, §2, §3

[8] = tested on: pS2448mTOR, pS473Akt, pY/pT-ERK2 in glioblastoma cells; experiment: Activated (phosphorylated) mTOR, Akt and ERK2 levels (immunoprecipitation, Western blotting); assay type: cell-based, human; settings: 0.1-5 nM; 4 days
Experimental: FIG. 10A through FIG. 10C illustrate the effect of contact with Compound C0105 on the levels of activated (phosphorylated) mTOR (pS^2448mTOR), Akt (pS^473Akt) and ERK2 (pY/pT-ERK2) in glioblastoma cells. Cells were treated with vehicle and 0.1-5 nM C0105 for 4 days. Cells were washed, solubilized and the resultant cell lysate was immunoprecipitated with anti-mTOR, -Akt or -ERK2. The levels of pS^2448mTOR, pS^473Akt, pY/pTERK2 in the respective anti-mTOR, -Akt, and -ERK2 immunoprecipitates were determined by Western blotting. The density of protein bands was measured by densitometric scanning. […] N=4. *p<0.01 compared to vehicle (open bars). […]
as §3

FLNA from HPECs = biological target: T1, FLNA from HPECs (Homo sapiens, UniProt P21333); experiment: Isoelectric focusing of purified FLNA (FLNA conformation); assay type: cell-based; settings: 1 nM; 4 days
T1 construct: FLNA was purified separately from MiaPaCa2 cells and from HPECs; endogenous in cells; host or cells: primary human pancreatic epithelial cells (HPEC)
Experimental: (§4) FIGS. 33A and 33B show isoelectric focusing result data (FIG. 33A) for FLNA separately isolated from HPEC and MiaPaCa2 cells after four days of incubation (contact) of those cells with medium alone or medium plus 1 nM Compound C0105. […] N=4, *p<0.01.
(§5) To determine whether the conformation of FLNA is different in cancer and primary normal cells and whether Compound C0105 affects FLNA conformation, FLNA was purified from cancer and primary cells after incubation with vehicle or 1 nM Compound C0105 for 4 days. Cells were washed with PBS, scraped, sonicated for 10 seconds and solubilized using 0.5% digitonin/0.2% sodium cholate/0.5% NP-40 at 4° C. with end-over-end rotation for 1 hour. Following centrifugation to remove insoluble debris, the obtained lysate was treated with 1% SDS for 1 minute to dissociate the […] proteins, diluted 10-fold with immunoprecipitation buffer, and immunopurified with immobilized anti-FLNA. The resultant FLNA was eluted using 200 μl antigen-elution buffer (Thermo), neutralized immediately with 100 mM Tris HCl (pH9.0), diluted to 500 μl with 50 mM Tris HCl, pH7.5, and passed through a 100 kD cut-off filter.
(§6) The purified FLNA was suspended in the 100 μl isoelectric focusing sample buffer. […]

FLNA from MiaPaCa2 cells = biological target: T2, FLNA from MiaPaCa2 cells (Homo sapiens, UniProt P21333); experiment: as above; assay type: cell-based; settings: 1 nM; 4 days
T2 construct: FLNA was purified separately from MiaPaCa2 cells and from HPECs; endogenous in cells; host or cells: MiaPaCa2 (MIA PaCa-2, ATCC CRL-1420)
Experimental: as §4, §5, §6

T2 sequence (P21333 whole entry): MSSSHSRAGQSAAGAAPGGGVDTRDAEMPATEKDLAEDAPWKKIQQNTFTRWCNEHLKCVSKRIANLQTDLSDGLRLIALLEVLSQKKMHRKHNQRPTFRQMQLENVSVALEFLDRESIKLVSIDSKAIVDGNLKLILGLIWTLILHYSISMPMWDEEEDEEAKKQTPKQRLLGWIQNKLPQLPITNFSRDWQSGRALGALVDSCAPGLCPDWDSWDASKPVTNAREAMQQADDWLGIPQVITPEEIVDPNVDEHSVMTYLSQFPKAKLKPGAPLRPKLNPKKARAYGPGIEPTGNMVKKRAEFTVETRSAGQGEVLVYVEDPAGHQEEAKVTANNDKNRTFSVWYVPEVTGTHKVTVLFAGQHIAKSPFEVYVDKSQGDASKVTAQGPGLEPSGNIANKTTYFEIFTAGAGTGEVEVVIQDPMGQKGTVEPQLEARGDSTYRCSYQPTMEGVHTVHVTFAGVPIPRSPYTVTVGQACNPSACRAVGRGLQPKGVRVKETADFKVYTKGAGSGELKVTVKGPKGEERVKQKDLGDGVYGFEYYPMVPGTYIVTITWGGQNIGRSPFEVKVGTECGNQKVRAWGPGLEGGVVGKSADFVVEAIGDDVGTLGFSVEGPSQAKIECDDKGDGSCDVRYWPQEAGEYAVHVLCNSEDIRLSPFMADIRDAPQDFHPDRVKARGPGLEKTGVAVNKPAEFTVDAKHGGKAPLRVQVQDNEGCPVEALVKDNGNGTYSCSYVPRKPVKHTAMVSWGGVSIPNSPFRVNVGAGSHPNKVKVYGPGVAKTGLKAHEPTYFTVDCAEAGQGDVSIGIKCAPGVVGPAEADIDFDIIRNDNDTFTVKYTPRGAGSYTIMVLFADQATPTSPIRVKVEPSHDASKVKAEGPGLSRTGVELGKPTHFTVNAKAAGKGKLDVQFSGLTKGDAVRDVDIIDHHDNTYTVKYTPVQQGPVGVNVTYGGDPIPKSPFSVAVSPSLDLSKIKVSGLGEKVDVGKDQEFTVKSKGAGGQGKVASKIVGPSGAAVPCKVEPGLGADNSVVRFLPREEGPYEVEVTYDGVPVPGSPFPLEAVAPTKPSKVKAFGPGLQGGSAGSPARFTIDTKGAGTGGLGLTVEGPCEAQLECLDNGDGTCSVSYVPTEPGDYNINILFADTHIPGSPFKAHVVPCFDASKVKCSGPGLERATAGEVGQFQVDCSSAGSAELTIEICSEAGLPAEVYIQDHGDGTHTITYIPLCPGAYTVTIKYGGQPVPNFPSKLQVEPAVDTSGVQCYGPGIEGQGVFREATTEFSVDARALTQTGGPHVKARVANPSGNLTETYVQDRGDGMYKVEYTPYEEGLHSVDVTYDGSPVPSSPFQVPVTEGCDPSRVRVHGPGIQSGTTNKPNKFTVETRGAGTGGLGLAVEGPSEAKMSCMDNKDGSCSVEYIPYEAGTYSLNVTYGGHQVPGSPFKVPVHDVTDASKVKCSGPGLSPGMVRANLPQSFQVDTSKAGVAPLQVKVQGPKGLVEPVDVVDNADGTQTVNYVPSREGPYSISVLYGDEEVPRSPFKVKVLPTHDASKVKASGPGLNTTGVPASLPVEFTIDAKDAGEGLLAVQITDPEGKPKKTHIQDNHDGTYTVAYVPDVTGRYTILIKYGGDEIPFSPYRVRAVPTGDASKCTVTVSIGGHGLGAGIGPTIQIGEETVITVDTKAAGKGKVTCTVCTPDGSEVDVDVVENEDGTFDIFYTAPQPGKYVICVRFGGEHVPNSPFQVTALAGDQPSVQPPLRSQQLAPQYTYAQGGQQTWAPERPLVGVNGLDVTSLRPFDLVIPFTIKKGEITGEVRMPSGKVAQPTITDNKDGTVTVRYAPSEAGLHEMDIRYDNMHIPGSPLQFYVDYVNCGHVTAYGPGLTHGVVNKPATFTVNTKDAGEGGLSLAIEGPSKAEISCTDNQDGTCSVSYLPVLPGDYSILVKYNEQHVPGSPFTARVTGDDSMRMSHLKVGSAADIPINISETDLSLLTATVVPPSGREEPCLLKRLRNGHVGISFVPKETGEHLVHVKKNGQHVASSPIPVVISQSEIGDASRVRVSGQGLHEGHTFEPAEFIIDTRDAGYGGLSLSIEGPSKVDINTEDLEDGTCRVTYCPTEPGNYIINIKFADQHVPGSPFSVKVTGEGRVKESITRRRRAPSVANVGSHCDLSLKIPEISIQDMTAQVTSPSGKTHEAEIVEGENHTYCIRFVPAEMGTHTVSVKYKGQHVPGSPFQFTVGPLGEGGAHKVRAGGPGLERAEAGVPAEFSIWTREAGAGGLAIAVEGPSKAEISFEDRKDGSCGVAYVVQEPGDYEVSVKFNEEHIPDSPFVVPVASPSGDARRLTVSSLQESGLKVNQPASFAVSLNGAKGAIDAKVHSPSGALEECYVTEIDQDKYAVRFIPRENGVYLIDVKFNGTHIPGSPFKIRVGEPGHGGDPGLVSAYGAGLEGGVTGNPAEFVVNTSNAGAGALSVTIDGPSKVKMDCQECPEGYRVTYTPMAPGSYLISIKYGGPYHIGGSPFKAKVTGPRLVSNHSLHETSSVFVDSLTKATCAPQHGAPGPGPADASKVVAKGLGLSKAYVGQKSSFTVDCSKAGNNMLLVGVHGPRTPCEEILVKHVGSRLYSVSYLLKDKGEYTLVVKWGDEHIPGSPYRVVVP
T1 sequence (P21333 whole entry): as above

## CN1CCC2(CC1)NCC(=O)N2Cc1ccccc1 [Compound C0105]
[1]
  Cell proliferation (Ki67 and PCNA levels): Inhibits Proliferation
[2]
  Cell proliferation (Ki67 and PCNA levels): reduces cell proliferation
[3]
  Cell proliferation (Ki67 and PCNA levels): Inhibits Proliferation
More than 65 receptors
  Binding to any of more than 65 assayed receptors: no significant binding
[4]
  FLNA-bound K-ras: reduces K-ras
  FLNA-bound Ras-GAP: increases Ras-GAP
[5]
  FLNA-bound K-ras: reduces K-ras
  FLNA-bound Ras-GAP: increases Ras-GAP
[6]
  FLNA-bound K-ras: reduces K-ras
  FLNA-bound Ras-GAP: increases Ras-GAP
[7]
  FLNA-bound K-ras: reduces K-ras
  FLNA-bound Ras-GAP: increases Ras-GAP
[8]
  mTOR, Akt and ERK activation (phosphorylated mTOR, Akt and ERK): robustly reduces mTOR, Akt and ERK activation
FLNA from HPECs
  pI of FLNA: no effect on the pI
FLNA from MiaPaCa2 cells
  Fraction of FLNA restored to the conformation (pI) present in HPECs: about 75%
